# Patent US20090054529A1, “Flow Path Conditioner System” (priority 2005, published 2009)
# Test system: E coli (ATCC 25922, MRI EC 13) and Pseudomonas aeruginosa (ATCC 9027, MRI Ps 10)
# Assay: Example 4 summary of the 62 test samples (both cultures pooled)
# Type: cell-based
# Conditions: aqueous mixtures of up to 20% v/v; Example 4 text summary
# Method: Freshly cultivated cultures of E coli (ATCC 25922, MRI EC 13) and Pseudomonas aeruginosa (ATCC 9027, MRI Ps 10) were suspended in MHB (Mueller-Hinton Broth) nutrient broth at 10^8 cfu/ml (colony-forming units per milliliter), diluted about 1:10 in peptone nutrient broth to about 10^7 cfu/ml. About 1 ml of each of the diluted cultures was added to one each of 9 ml of the corresponding test solutions described below for 5.0 minutes and then diluted in two steps of 1:10 per step. 100 microliters of such diluted culture was then plated onto a conventional nutrient agar plate. Nutrient agar plates were incubated by conventional methods and the number of colonies present on each plate were counted. Positive controls combined freshly cultivated cultures above described with peptone broth were included in each test group and numbers of colonies in control plates were used as a reference.
# Now referring to Table 4, the results of combining each test solution as described above with each of the E coli (ATCC 25922, MRI EC 13) and Pseudomonas aeruginosa (ATCC 9027, MRI Ps 10) cultures are summarized using the following quantitative nomenclature: […]
row,SMILES,effectiveness in reducing microorganisms
1,CCO [ethanol],do not appear to be effective
2,CO [methanol],do not appear to be effective
